# Laboratory results taken from patent publication US20200338040A1, “METHODS FOR TREATING ALZHEIMER'S DISEASE AND RELATED DISORDERS” (The General Hospital Corporation, priority 2015, published 2020).
# Structures can show the parent of a compound that is named as a salt.
# How the values were obtained:
# Aβx-42 = molecular target: T1, Aβx-42 (Homo sapiens, UniProt P05067); assay: Brain extract sandwich ELISA in APP/PS1 mice, Aβx-42; assay type: in vivo, mouse; conditions: for content of TBS-soluble Aβx-42 / total level of TBS soluble Aβx-42 after 0.5 M Gdn-HCl: seven days; for content of TBS-soluble Aβx-42: APP/PS1 mice; for total level of TBS soluble Aβx-42 after 0.5 M Gdn-HCl: guanidine 37° C. 30 min
# T1 construct: commercially available kits BNT77/BA27 for Aβ40 or BNT77/BC05 for Aβx-42; from tissue; host or cells: brain extracts (TBS, Triton, SDS) or hippocampal interstitial fluid of APPswe/PS1dE9 mice
# T1 sequence (P05067 672-713 limits assumed): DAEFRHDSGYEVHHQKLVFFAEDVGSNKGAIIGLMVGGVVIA
# ISF Aβ = ISF Aβ half-life by reverse microdialysis with Compound E in APP/PS1 mice; assay type: in vivo, mouse; conditions: 3.15 mg/kg
# Method: The contralateral hippocampus was used for this experiment. […] Aβ levels within the ISF were measured for an additional 5 hours. The single logarithmic plot was made from Aβ levels and extrapolated the half-life of ISF Aβ.
# APP/PS1 transgenic mice = assay: Morris water maze in APP/PS1 transgenic mice; assay type: in vivo, mouse; conditions: versus mock treatment
# [1] = test system: N- and C-terminal fragments of Gaussian luciferase conjugated to Aβ42; assay: Aβ split-luciferase complementation assay, oligomer formation in HEK293 cells; assay type: cell-based
# Method: (§1) Aβ agglomeration and oligomer dissociation assays were performed in vitro using an Aβ splitluciferase complementation assay. […] The conditioned media from these cells was collected, 10 nM of coelenterazine was added and the luciferase activity was measured using a Wallac 1420 (PerkinElmer). […] The luciferase activity was measured.
# Aβ42 = molecular target: T2, Aβ42 (Homo sapiens, UniProt P05067); assay: Aβ42 fibril formation by transmission electron microscopy; assay type: biochemical
# T2 construct: Aberrant Aβ peptide isoforms that are 40 or 42 amino acids in length (Aβ-40/42); host or cells: synthetic
# T2 sequence (P05067 672-713 limits assumed): as above
# Method: The anti-fibrillogenic properties of cromolyn was confirmed by performing TEM analysis. […] After incubation for 48 hours, 15 μl or the Aβ42 fibril solution were adsorbed on carbon-coated EM grids for 20 min. at room temperature. After 3 washes in sterile PBS and ddH2O, the grids were allowed to dry before negative staining with 2% (w/v) uranyl-acetate water, two times for 8 min. Each grid was then briefly washed in degassed ddH2O, air dried, and imaged by TEM at a magnification of 150,000×.
# Aβ oligomers = assay: 82E1/82E1 ELISA of Aβ oligomers in TBS soluble brain fraction of APP/PS1 mice; assay type: in vivo, mouse; conditions: one week i.p. treatment
# [2] = test system: pre-existing Aβ42 oligomers (Gluc halves fused with Aβ42); assay: Oligomer dissociation assay, split-luciferase, conditioned media; assay type: biochemical; conditions: added to conditioned media, 10 nM, 10 μM or 1 mM, 12 hours
# Method: as §1
# [3] = test system: ISF Aβx-42 and Aβ oligomers; assay: In vivo microdialysis of ISF in APP/PS1 mice, Aβx-42 and Aβ oligomers; design: species or system mouse; conditions: 3.15 mg/kg i.p. daily for one week; compared with ISF Aβx-40
# [4] = cited from earlier work
# amyloid deposits = assay: Immunohistochemical amyloid burden and density of amyloid deposits in APP/PS1 mice; assay type: in vivo, mouse; conditions: one week of treatment
# Aβx-40 = molecular target: T3, Aβx-40 (Homo sapiens, UniProt P05067); assay: Brain extract sandwich ELISA in APP/PS1 mice, Aβx-40; assay type: in vivo, mouse; conditions: for content of TBS-soluble Aβx-40 / total level of TBS soluble Aβx-40 after 0.5 M Gdn-HCl: seven days; for content of TBS-soluble Aβx-40: APP/PS1 mice; for total level of TBS soluble Aβx-40 after 0.5 M Gdn-HCl: guanidine 37° C. 30 min
# T3 construct: commercially available kits BNT77/BA27 for Aβ40 or BNT77/BC05 for Aβx-42; from tissue; host or cells: brain extracts (TBS, Triton, SDS) or hippocampal interstitial fluid of APPswe/PS1dE9 mice
# T3 sequence (P05067 672-711 limits assumed): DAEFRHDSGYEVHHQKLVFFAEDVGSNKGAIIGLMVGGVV
# Aβ40 and Aβ42 = assay: Thioflavin T Aβ fibrillization assay; conditions: 5, 50, 5000 nM, one hour incubation at 37° C.
# Method: In vitro amyloid fibrillization assay was performed using synthetic Aβ peptides (rPeptide, Bogart GA) as well as thioflavin-T (Sigma-Aldrich), respectively dissolved in DMSO and in methanol.
# DMSO was used as control. The progression of fibrillization was followed every 10 min. for 60 min. at room temperature by measuring the fluorescence intensity at excitation and emission wavelengths of 450 nm and 480 nm, respectively, using an M3 microplate reader. The results were normalized for background using fluorescent reading at time 0 by the software provided by the M3 plate reader.
# monomeric Aβ = assay: Immunoblot of 4 kDa Aβ band (6E10, 82E1) in TBS soluble extracts of APP/PS1 mice; assay type: in vivo, mouse; conditions: one week i.p. treatment
# ISF Aβx-40 = molecular target: T4, ISF Aβx-40 (Homo sapiens, UniProt P05067); assay: In vivo microdialysis of ISF in APP/PS1 mice, Aβx-40; design: species or system mouse; conditions: 3.15 mg/kg i.p. daily for one week
# T4 construct: commercially available kits BNT77/BA27 for Aβ40 or BNT77/BC05 for Aβx-42; from tissue; host or cells: brain extracts (TBS, Triton, SDS) or hippocampal interstitial fluid of APPswe/PS1dE9 mice
# T4 sequence (P05067 672-711 limits assumed): as above
# Aβ peptides = assay: Binding to Aβ peptides
# clinical = conditions: human, in vivo, po, 10 mg, average Cmax of ibuprofen in the CSF
# Method: The evaluation of the plasma and CSF levels in 24 human subjects under an IND and a phase I study followed a 10 mg or 20 mg oral administration to healthy volunteers (age 55-79).
# [5] = 3.15 mg/kg, versus PBS controls
structure (smiles),measurement,setting,value
"O=C(O)c1cc(=O)c2c(OCC(O)COc3cccc4oc(C(=O)O)cc(=O)c34)cccc2o1 [cromolyn sodium, disodium salt of 5,5′-[(2-hydroxytrimethylene)dioxy]bis [4-oxo-4H-1-benzopyran-2-carboxylate]]",content of TBS-soluble Aβx-42,Aβx-42; 2.1 mg/kg i.p. daily,40.9%
same,total level of TBS soluble Aβx-42 after 0.5 M Gdn-HCl,Aβx-42; 2.1 mg/kg,63.3%
same,content of TBS-soluble Aβx-42,Aβx-42; 3.15 mg/kg i.p. daily,46.2%
same,total level of TBS soluble Aβx-42 after 0.5 M Gdn-HCl,Aβx-42; 3.15 mg/kg,76.1%
same,amount of Aβx-42 extracted in 2% SDS,Aβx-42; [5],significantly decreased
same,amount of Aβx-42 extracted in 2% triton,Aβx-42; [5],significantly decreased
same,shortening of half-life of ISF Aβ versus control,ISF Aβ,about 50%
same,time after Compound E at which ISF Aβ levels started to decrease,ISF Aβ,2 h
same,memory capabilities in the Morris water maze tests,APP/PS1 transgenic mice,prevented lowering memory capabilities
same,concentration at which the effect on luminescence could be detected,[1],above 10 μM
same,"luminescence signal, oligomer formation","[1]; 10 nM, 10 μM or 1 mM, 12 hours",significantly decreased the luminescence signal in a dose-dependent manner
same,"formation of Aβ42 fibrils, TEM",Aβ42; 500 nM,inhibited
same,"formation of Aβ42 fibrils, TEM",Aβ42; lower concentration (50 nM),no effect was detected
same,"levels of oligomeric aggregates, 82E1/82E1 ELISA",Aβ oligomers,no changes
same,"luminescence signal, pre-existing oligomers",[2],failed to impact the luminescence signal
same,ISF Aβx-42 and Aβ oligomers,[3],performed similarly
same,water solubility,[4],water soluble
same,amyloid burden and density of amyloid deposits,amyloid deposits,remained unaffected
same,content of TBS-soluble Aβx-40,Aβx-40; 2.1 mg/kg i.p. daily,39.5%
same,total level of TBS soluble Aβx-40 after 0.5 M Gdn-HCl,Aβx-40; 2.1 mg/kg,50.7%
same,content of TBS-soluble Aβx-40,Aβx-40; 3.15 mg/kg i.p. daily,37.1%
same,total level of TBS soluble Aβx-40 after 0.5 M Gdn-HCl,Aβx-40; 3.15 mg/kg,44.6%
same,amount of Aβx-40 extracted in 2% SDS,Aβx-40; [5],significantly decreased
same,amount of Aβx-40 extracted in 2% triton,Aβx-40; [5],significantly decreased
same,"Aβ40 and Aβ42 fibrillization, thioflavin T",Aβ40 and Aβ42,inhibited Aβ fibril formation in vitro at a nanomolar concentration
same,"amounts of monomeric Aβ, 4 kDa band",monomeric Aβ,decreased
same,ISF Aβx-40 level,ISF Aβx-40,283 pM
same,decrease of ISF Aβx-40 level,ISF Aβx-40,30%
same,binding to Aβ peptides,Aβ peptides,binds to Aβ peptides
"CC(C)Cc1ccc(C(C)C(=O)O)cc1 (racemic) [ibuprofen, (RS)-2-(4-(2-methylpropyl)phenyl) propanoic acid]",Cmax,clinical,3.94 ± 1.29 ng/mL
same,solubility in organic solvents such as ethanol and acetone,[4],readily soluble
same,solubility in water,[4],< 1000 µg/mL
